Assay results published in ChEMBL document CHEMBL1201862, “PubChem BioAssay data set” (2004).
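Tested at 5 concentrations; 48 h exposure; 96-well plates; endpoints linearly interpolated, else capped at highest concentration. Abbreviation: GI50, concentration required for 50% inhibition of growth.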 Activity calls are given as the source filed them. Rule as the data show it: active = GI50 up to about 1.1 µM and inactive = higher.

Columns and labels:
Experiment in all cases: NCI tumour cell line growth inhibition, 48 h
TK-10 = tested on: TK-10
LOX IMVI = tested on: LOX IMVI
SF-268 = tested on: SF-268
MOLT-4 = tested on: MOLT-4
CAKI-1 = tested on: CAKI-1
CCRF-CEM = tested on: CCRF-CEM
MDA-N = tested on: MDA-N
NCI-H226 = tested on: NCI-H226
UACC-62 = tested on: UACC-62
RXF 393 = tested on: RXF 393
OVCAR-8 = tested on: OVCAR-8
HCT-116 = tested on: HCT-116
SK-OV-3 = tested on: SK-OV-3
SK-MEL-2 = tested on: SK-MEL-2
HT-29 = tested on: HT-29
Malme-3M = tested on: Malme-3M
HCT-15 = tested on: HCT-15
SR = tested on: SR
RPMI-8226 = tested on: RPMI-8226
SF-539 = tested on: SF-539
Hs-578T = tested on: Hs-578T
PC-3 = tested on: PC-3
T47D = tested on: T47D
UACC-257 = tested on: UACC-257
ACHN = tested on: ACHN
SK-MEL-5 = tested on: SK-MEL-5
UO-31 = tested on: UO-31
DU-145 = tested on: DU-145
SN12C = tested on: SN12C
NCI-H23 = tested on: NCI-H23
HOP-62 = tested on: HOP-62
HOP-92 = tested on: HOP-92
MDA-MB-231 = tested on: MDA-MB-231
BT-549 = tested on: BT-549
MDA-MB-435 = tested on: MDA-MB-435
K562 = tested on: K562
786-0 = tested on: 786-0
HCC 2998 = tested on: HCC 2998
EKVX = tested on: EKVX
MCF7 = tested on: MCF7
M14 = tested on: M14
SK-MEL-28 = tested on: SK-MEL-28
A498 = tested on: A498
NCI-H522 = tested on: NCI-H522
OVCAR-4 = tested on: OVCAR-4
SF-295 = tested on: SF-295
OVCAR-5 = tested on: OVCAR-5
OVCAR-3 = tested on: OVCAR-3
SNB-19 = tested on: SNB-19
KM12 = tested on: KM12
SW-620 = tested on: SW-620
SNB-75 = tested on: SNB-75
A549 = tested on: A549
COLO 205 = tested on: COLO 205
NCI/ADR-RES = tested on: NCI/ADR-RES
NCI-H460 = tested on: NCI-H460
U-251 = tested on: U-251
HL-60 = tested on: HL-60
IGROV-1 = tested on: IGROV-1

Oc1ccc(-c2nn3c(CCCCCCCCc4nnc5sc(-c6ccc(O)cc6)nn45)nnc3s2)cc1
GI50 (TK-10): > 100 µM (inactive)
GI50 (LOX IMVI): > 100 µM (inactive)
GI50 (SF-268): > 100 µM (inactive)
GI50 (MOLT-4): 95.7 µM (inactive)
GI50 (CAKI-1): > 100 µM (inactive)
GI50 (CCRF-CEM): > 100 µM (inactive)
GI50 (MDA-N): > 100 µM (inactive)
GI50 (NCI-H226): > 100 µM (inactive)
GI50 (UACC-62): > 100 µM (inactive)
GI50 (RXF 393): > 100 µM (inactive)
GI50 (OVCAR-8): > 100 µM (inactive)
GI50 (HCT-116): > 100 µM (inactive)
GI50 (SK-OV-3): > 100 µM (inactive)
GI50 (SK-MEL-2): > 100 µM (inactive)
GI50 (HT-29): > 100 µM (inactive)
GI50 (Malme-3M): > 100 µM (inactive)
GI50 (HCT-15): > 100 µM
GI50 (SR): > 100 µM (inactive)
GI50 (RPMI-8226): > 100 µM (inactive)
GI50 (SF-539): > 100 µM (inactive)
GI50 (Hs-578T): > 100 µM (inactive)
GI50 (PC-3): > 100 µM (inactive)
GI50 (T47D): 55.1 µM (inactive)
GI50 (UACC-257): > 100 µM (inactive)
GI50 (ACHN): > 100 µM (inactive)
GI50 (SK-MEL-5): > 100 µM (inactive)
GI50 (UO-31): > 100 µM (inactive)
GI50 (DU-145): > 100 µM (inactive)
GI50 (SN12C): > 100 µM (inactive)
GI50 (NCI-H23): > 100 µM (inactive)
GI50 (HOP-62): > 100 µM (inactive)
GI50 (HOP-92): > 100 µM (inactive)
GI50 (MDA-MB-231): > 100 µM (inactive)
GI50 (BT-549): > 100 µM (inactive)
GI50 (MDA-MB-435): > 100 µM (inactive)
GI50 (K562): > 100 µM (inactive)
GI50 (786-0): > 100 µM (inactive)
GI50 (HCC 2998): > 100 µM (inactive)
GI50 (EKVX): > 100 µM (inactive)
GI50 (MCF7): > 100 µM (inactive)
GI50 (M14): > 100 µM (inactive)
GI50 (SK-MEL-28): > 100 µM (inactive)
GI50 (A498): > 100 µM (inactive)
GI50 (NCI-H522): > 100 µM (inactive)
GI50 (OVCAR-4): > 100 µM (inactive)
GI50 (SF-295): > 100 µM (inactive)
GI50 (OVCAR-5): > 100 µM (inactive)
GI50 (OVCAR-3): > 100 µM (inactive)
GI50 (SNB-19): > 100 µM (inactive)
GI50 (KM12): > 100 µM (inactive)
GI50 (SW-620): > 100 µM (inactive)
GI50 (SNB-75): > 100 µM (inactive)
GI50 (A549): > 100 µM (inactive)
GI50 (COLO 205): > 100 µM (inactive)
GI50 (NCI/ADR-RES): > 100 µM (inactive)
GI50 (NCI-H460): > 100 µM (inactive)
GI50 (U-251): > 100 µM (inactive)

CC(C)(C)C(=O)C(N)C(=O)C(C)(C)C
GI50 (TK-10): > 100 µM (inactive)
GI50 (LOX IMVI): > 100 µM (inactive)
GI50 (SF-268): > 100 µM (inactive)
GI50 (MOLT-4): 9.57 µM (inactive)
GI50 (HL-60): > 100 µM (inactive)
GI50 (CAKI-1): > 100 µM (inactive)
GI50 (CCRF-CEM): > 100 µM (inactive)
GI50 (MDA-N): > 100 µM (inactive)
GI50 (UACC-62): > 100 µM (inactive)
GI50 (RXF 393): > 100 µM (inactive)
GI50 (OVCAR-8): > 100 µM (inactive)
GI50 (HCT-116): > 100 µM (inactive)
GI50 (SK-OV-3): > 100 µM (inactive)
GI50 (SK-MEL-2): > 100 µM (inactive)
GI50 (Malme-3M): > 100 µM (inactive)
GI50 (HCT-15): > 100 µM
GI50 (SR): > 100 µM (inactive)
GI50 (RPMI-8226): > 100 µM (inactive)
GI50 (SF-539): > 100 µM (inactive)
GI50 (Hs-578T): > 100 µM (inactive)
GI50 (PC-3): > 100 µM (inactive)
GI50 (T47D): > 100 µM (inactive)
GI50 (UACC-257): > 100 µM (inactive)
GI50 (ACHN): > 100 µM (inactive)
GI50 (SK-MEL-5): > 100 µM (inactive)
GI50 (UO-31): > 100 µM (inactive)
GI50 (DU-145): > 100 µM (inactive)
GI50 (SN12C): > 100 µM (inactive)
GI50 (HOP-62): > 100 µM (inactive)
GI50 (HOP-92): > 100 µM (inactive)
GI50 (MDA-MB-231): > 100 µM (inactive)
GI50 (BT-549): > 100 µM (inactive)
GI50 (MDA-MB-435): > 100 µM (inactive)
GI50 (K562): > 100 µM (inactive)
GI50 (786-0): > 100 µM (inactive)
GI50 (HCC 2998): > 100 µM (inactive)
GI50 (MCF7): > 100 µM (inactive)
GI50 (M14): > 100 µM (inactive)
GI50 (SK-MEL-28): > 100 µM (inactive)
GI50 (NCI-H522): > 100 µM (inactive)
GI50 (OVCAR-4): > 100 µM (inactive)
GI50 (SF-295): > 100 µM (inactive)
GI50 (OVCAR-5): > 100 µM (inactive)
GI50 (SNB-19): > 100 µM (inactive)
GI50 (KM12): > 100 µM (inactive)
GI50 (SW-620): > 100 µM (inactive)
GI50 (SNB-75): > 100 µM (inactive)
GI50 (A549): > 100 µM (inactive)
GI50 (COLO 205): > 100 µM (inactive)
GI50 (NCI/ADR-RES): > 100 µM (inactive)
GI50 (NCI-H460): > 100 µM (inactive)
GI50 (U-251): > 100 µM (inactive)

COC(=O)C1=Nc2c(C)nn(-c3ccccc3)c2N=C(c2ccc([N+](=O)[O-])cc2)C1
GI50 (TK-10): > 10 µM (inactive)
GI50 (LOX IMVI): > 10 µM (inactive)
GI50 (SF-268): > 10 µM (inactive)
GI50 (MOLT-4): > 10 µM (inactive)
GI50 (HL-60): > 10 µM (inactive)
GI50 (CAKI-1): > 10 µM (inactive)
GI50 (CCRF-CEM): > 10 µM (inactive)
GI50 (MDA-N): > 10 µM (inactive)
GI50 (UACC-62): > 10 µM (inactive)
GI50 (OVCAR-8): > 10 µM (inactive)
GI50 (HCT-116): > 10 µM (inactive)
GI50 (SK-OV-3): > 10 µM (inactive)
GI50 (HT-29): > 10 µM (inactive)
GI50 (Malme-3M): > 10 µM (inactive)
GI50 (HCT-15): > 10 µM
GI50 (SR): > 10 µM (inactive)
GI50 (RPMI-8226): > 10 µM (inactive)
GI50 (SF-539): > 10 µM (inactive)
GI50 (Hs-578T): > 10 µM (inactive)
GI50 (IGROV-1): > 10 µM (inactive)
GI50 (PC-3): > 10 µM (inactive)
GI50 (T47D): > 10 µM (inactive)
GI50 (UACC-257): > 10 µM (inactive)
GI50 (ACHN): > 10 µM (inactive)
GI50 (SK-MEL-5): > 10 µM (inactive)
GI50 (DU-145): > 10 µM (inactive)
GI50 (SN12C): > 10 µM (inactive)
GI50 (NCI-H23): > 10 µM (inactive)
GI50 (HOP-62): > 10 µM (inactive)
GI50 (HOP-92): > 10 µM (inactive)
GI50 (MDA-MB-231): > 10 µM (inactive)
GI50 (BT-549): > 10 µM (inactive)
GI50 (MDA-MB-435): > 10 µM (inactive)
GI50 (K562): > 10 µM (inactive)
GI50 (786-0): > 10 µM (inactive)
GI50 (HCC 2998): > 10 µM (inactive)
GI50 (MCF7): > 10 µM (inactive)
GI50 (M14): > 10 µM (inactive)
GI50 (SK-MEL-28): > 10 µM (inactive)
GI50 (NCI-H522): > 10 µM (inactive)
GI50 (OVCAR-4): > 10 µM (inactive)
GI50 (SF-295): > 10 µM (inactive)
GI50 (OVCAR-5): 5.98 µM (inactive)
GI50 (OVCAR-3): > 10 µM (inactive)
GI50 (SNB-19): > 10 µM (inactive)
GI50 (KM12): > 10 µM (inactive)
GI50 (SW-620): > 10 µM (inactive)
GI50 (SNB-75): > 10 µM (inactive)
GI50 (A549): > 10 µM (inactive)
GI50 (COLO 205): > 10 µM (inactive)
GI50 (NCI/ADR-RES): > 10 µM (inactive)
GI50 (U-251): > 10 µM (inactive)
